Earlier results on one substance are cited in PMC4291083, “Ex Vivo Characterization of a Novel Iodine-123-Labelled Aminomethylchroman as a Potential Agonist Ligand for SPECT Imaging of Dopamine D2/3 Receptors” (International Journal of Molecular Imaging, 2014).

As usually defined, the Ki is a dissociation constant, usually derived from enzyme kinetics or from competition with a known ligand.

What all share (set-up): method as in PMID 24325578
For one data set, the target named is D1 receptor. The settings on record: in vitro; cited from earlier work.
The target of a further data set is D2 high. The settings on record: in vitro; cited from earlier work.
The next data set has as its system dopamine D4 receptor. Conditions: in vitro; cited from earlier work.
In the next data set the test system is D2 receptor. The settings on record: agonism D2 receptor, cited from earlier work.
The target of the next data set is D2 low. Conditions: in vitro; cited from earlier work.

As to “(R) N-[7-hydroxychroman-2-yl]-methyl 4-iodobenzyl amine [compound 1]”, the inhibitory constant (Ki) is 8670 nM at D1 receptor, 3.79 nM at D2 high and 51.8 nM at D2 low. Besides, the “binding affinity to dopamine D4 receptor” value with dopamine D4 receptor is given as “binds with high-affinity”. In addition, the Emax in the data set on D2 receptor (cAMP) is on record as 86 % of dopamine. Also, the “pEC50 cAMP” value at D2 receptor is given as 9.2 ± 0.4.
